# Assays:
# rat ileal mucosa = experiment: Peroxidation of phospholipids in intestinal mucosa after hemorrhagic shock; assay type: in vivo; conditions: 10 μM intraluminal, 2 h HS
# From the text: Assay for peroxidation of phospholipids. Gut mucosal samples were homogenized. Lipids were extracted from homogenates using the Folch procedure, see M. Lees and G. H. Sloan-Stanley, A simple method for isolation and purification of total lipids from animal tissue, J. BIOL. CHEM. 226:497-509 (1957), and resolved by 2D HPTLC (High Performance Thin Layer Chromatography) as previously described, see Kagan, V. E. et al., A role for oxidative stress in apoptosis: Oxidation and externalization of phosphatidylserine is required for macrophage clearance of cell undergoing Fas-mediated apoptosis, J Immunol, 2002, 169:487-489. Spots of phospholipids'were scraped from HPTLC plates and phospholipids were extracted from silica. Lipid phosphorus was determined by a micro-method, see Bottcher, C. J. F. et al., A rapid and sensitive sub-micro phosphorus determination, Anal Chim Acta. 1961, 24: 203-204.
# Oxidized phospholipids were hydrolyzed by pancreatic phospholipase A2 (2 U/μl) in 25 mM phosphate buffer containing 1 mM CaCl2, 0.5 mM EDTA and 0.5 mM sodium dodecyl sulfate (SDS) (pH 8.0, at room temperature for 30 min). Fatty acid hydroperoxides formed were determined by fluorescence HPLC of resorufin stoichiometrically formed during their microperoxidase 11-catalized reduction in presence of Amplex Red (for 40 min at 4° C.) (8). Fluorescence HPLC (Eclipse XDB-C18 column, 5 μm, 150×4.6 mm, mobile phase was composed of 25 mM disodium phosphate buffer (pH 7.0)/methanol (60:40 v/v); excitation wavelength 560 nm, emission wavelength 590 nm) was performed on a Shimadzu LC-100AT HPLC system equipped with fluorescence detector (RF-10Axl) and autosampler (SIL-10AD).
# In the subsequent series of in vivo studies, the affect of intraluminal XJB-5-131 on hemorrhage-induced peroxidation of phospholipids in intestinal mucosa was examined. […] In a preferred embodiment, 0.3 mL of test solution filled the lumen of each ileal compartment.
# After two hours of HS, samples of ileal mucosa from the gut sacs filled with the vehicle and XJB-5-131 were obtained and compared with ileal mucosa of normal MECs. […]
# Sprague Dawley rats = experiment: Survival of rats subjected to volume-controlled hemorrhagic shock; assay type: in vivo, rat; conditions: 2 μmol/kg iv
# Description: Survival of rats subjected to volume-controlled hemorrhagic shock. Following surgical preparation and a 5-min stabilization period to obtain baseline readings, rats were subjected to hemorrhagic shock. Bleeding was carried out in 2 phases.
# Initially, 21 ml/kg of blood was withdrawn over 20 min. Immediately thereafter, an additional 12.5 ml/kg of blood was withdrawn over 40 min. Thus, hemorrhage occurred over a total period of 60 min and the total blood loss was 33.5 ml/kg or approximately 55% of the total blood volume. Rats were randomly assigned to receive XJB-5-131 (2 μmol/kg) or its vehicle, a 33:67 (v/v) mixture of DMSO and normal saline. XJB-5-131 solution or vehicle alone was administered as a continuous infusion during the last 20 min of the hemorrhage period. The total volume of fluid infused was 2.8 ml/kg and it was administered intravenously using a syringe pump (KD100, KD Scientific, New Hope, Pa.). […] At the end of the 6 hour observation period, animals that were still alive were euthanized with an overdose of KCl.
# Blood pressure was recorded continuously using a commercial strain-gauge transducer, amplifier, and monitor (S90603a, SpaceLabs, Redmond, Wash.). Blood samples (0.5 ml) were collected from the jugular vein at the beginning of hemorrhage (baseline), at the end of hemorrhage (shock) and at the end of resuscitation (resuscitation). Hemoglobin concentration [Hb], lactate and glucose concentration were determined using an auto-analyzer (Model ABL 725, Radiometer Copenhagen, Westlake, Ohio).
# A total of sixteen rats were tested in this study. Rats were treated with 2.8 ml/kg of vehicle or the same volume of XJB-5-131 solution during the final 20 min of the bleeding protocol. The total dose of XJB-5-131 infused was 2 μmol/kg. Following profound hemorrhagic shock consistent with the protocol described above for the prior studies, thirteen survived for at least 60 min and received the full dose of either XJB-5-131 solution or the vehicle, a 33:67 (v/v) mixture of DMSO and normal saline. […] None of the between-group differences were statistically significant.
structure (smiles),measurement,setting,value
CC(C)C[C@@H](/C=C/[C@H](Cc1ccccc1)C(=O)N1CCC[C@H]1C(=O)N[C@H](C(=O)N[C@@H](CCCNC(=O)OCc1ccccc1)C(=O)NC1CC(C)(C)N([O])C(C)(C)C1)C(C)C)NC(=O)OC(C)(C)C [XJB-5-131],peroxidation of phosphatidylcholine (PC),rat ileal mucosa,no effect
same,peroxidation of phosphatidylethanolamine (PE),rat ileal mucosa,small effect
same,peroxidation of phosphatidylserine (PS),rat ileal mucosa,no effect
same,rats surviving longer than 3 hours after completion of the hemorrhage protocol,Sprague Dawley rats,Three of the six
same,rats surviving the whole 6 hour post-bleeding observation period,Sprague Dawley rats,one rat
same,survival time versus vehicle,Sprague Dawley rats; no resuscitation,survived significantly longer

# Source: patent US8822541B2, “Use of targeted nitroxide agents in mitigating or treating radiation injury” (University of Pittsburgh—Of the Commonwealth System of …, priority 2008, dated 2014)
